# According to publication PMC4833932, “Cytotoxicity and cell cycle arrest induced by andrographolide lead to programmed cell death of MDA-MB-231 breast cancer cell line” (Journal of Biomedical Science, 2016):
# Where two headings read alike, the source gives them in different places.
# Assay: In vivo pharmacokinetic study, plasma LC-MS/MS
# Set-up: species or system Female BALB/c mice
# Conditions: for Plasma exposure at 24 h: LLOQ 2.44 ng/ml; for bioavailability: PO 50 mg/kg vs IV 5 mg/kg; for half-life: read-out: Terminal T½ (converted); for AUC(0-t): read-out: AUC(0-8)
# Procedure: Female BALB/c mice, being divided into two groups (n = 6 per group), received andrographolide via oral route (PO) as well as intravenous (IV) bolus dosing at 50 mg/kg (equivalent to 142.73 μmol/kg and dose volume, 10 ml/kg) and 5 mg/kg body weight (equivalent to 14.27 μmol/kg and dose volume, 5 ml/kg) respectively. The formulation was prepared in 10 % DMSO, 10 % Cremophor and 80 % 1/15 (M) Na2HPO4 with dose volume of 10 ml/kg and 5 ml/kg for oral and IV respectively. ~50 μl of blood samples were collected at each time points (0.25, 0.5, 1, 2, 4, 8 and 24 h for PO and 0.08, 0.25, 0.5, 1, 2, 4, 8 and 24 h for IV) into heparinized capillary tubes by piercing the saphenous vein using a disposable needle (26 G). Blood samples were centrifuged at 3000 rpm for 10 min at 4 °C. The resulting plasma samples were stored at –80 °C until bioanalysis.
# Analysis of plasma samples were performed using a liquid chromatography tandem mass spectroscopy (API-4000, AB Sciex Instruments, Foster City, CA) attached with the ESI source. The LC system consisted of LC-20ADvp pump (Shimadzu, Kyoto, Japan) and CTC PAL (HTS) autosampler. Liquid chromatography was performed using a Luna C18 column (2 × 30 mm, 5 μ particle) of Phenomenex (Torrance, CA) and the mobile phase consisted of 2 mM ammonium acetate in water (A) and 80: 20 (v/v) MeCN: Solvent A (B). The gradient elution program was as follows: first 60 s only A for washing, then 60 s for gradient up to 100 % B and it was continued for next 60 s. Total run time was 3.5 min with a flow of 0.8 ml/min at room temperature. Samples were detected and quantified using Analyst 1.4.2. Internal standard used was diclofenac.
# The concentrations of test samples were determined from the standard curve prepared by spiking 2 μl of working stock in 98 μl of blank plasma along with the quality control samples (low, mid and high). The linear equation of the standard curve was obtained by regressional analysis of the peak area ratio of analyte to internal standard versus nominal concentration with a weighting factor of 1/X2. The calibration curve was linear in the concentration range 2.44 (LLOQ) to 1250 ng/ml.
# [1] = female, BALB/c, mouse, plasma, iv, 5 mg/kg, IV at 5 mg/kg, female BALB/c mice
# [2] = female, BALB/c, mouse, plasma, po, 50 mg/kg, PO at 50 mg/kg, female BALB/c mice
# [3] = mouse, plasma, IV at 5 mg/kg, female BALB/c mice
# [4] = mouse, plasma, PO at 50 mg/kg, female BALB/c mice
compound,measurement,setting,value
C=C1CC[C@@H]2[C@](C)(CO)[C@H](O)CC[C@@]2(C)[C@@H]1C/C=C1/C(=O)OC[C@H]1O [andrographolide],Plasma exposure at 24 h,"IV arm, 5 mg/kg",below lower limit of quantitation
same,bioavailability,female BALB/c mice,9.27 ± 1.69%
same,Plasma exposure at 24 h,"PO arm, 50 mg/kg",below lower limit of quantitation
same,CL,"PO at 50 mg/kg, female BALB/c mice",1045 ± 201.7 mL/min/kg
same,AUC(0-inf),[1],2.51 ± 0.56 µM·h
same,clearance,[1],91.8 mL/min/kg
same,half-life,[1],1.86 ± 0.21 h
same,bioavailability,"female, BALB/c, mouse, plasma, oral, 50 mg/kg, female BALB/c mice, read-out: Bioavailability",< 10%
same,AUC(0-inf),[2],2.33 ± 0.42 µM·h
same,half-life,[2],3.3 ± 0.35 h
same,C0,[3],14.6 ± 4.04 µM
same,AUC(0-t),[3],1.96 ± 0.38 µM·h
same,Cmax,[4],0.73 ± 0.17 µM
same,Tmax,[4],0.42 ± 0.14 h
same,AUC(0-t),[4],1.92 ± 0.36 µM·h
